From US20070254312A1, “Protein Kinase Inhibitors and Methods for Identiying Same” (priority 2004, published 2007)
Read-outs that look alike come from different tables or passages of the source. Starred links: 1 amine or outer side, 2 acyl side, 3 side chain; linkers in the order of their positions; H or OH if unused. Non-standard residues stand in square brackets, D forms with d. Residues, ends and D or L forms follow the SMILES beside them. Groups on a side chain read outwards from the residue. *: point of attachment. X2 = N=C(N)NCCC[C@@H](C(=O)*)N(Cc1cccc(O)c1O)Cc1cccc(O)c1O; X1 = N=C(N)NCCC[C@@H](C(=O)[*:2])N(Cc1cccc(O)c1O)[*:1]; Benzoyl(4-NO2) = O=C(c1ccc([N+](=O)[O-])cc1)*; Cysteamide = C(CS[*:3])N[*:1]; Dap = NC[C@H](N)C(=O)O

Key:
PKCδ [1] = biological target: T1, PKCδ (Homo sapiens, UniProt Q05655); experiment: PKC δ screen, IC50 and Ki determination (Example 2); assay type: biochemical; set-up: purchased Panvera; details: for Fold selectivity (IC50), PKC δ: relative to most potently inhibited isoform (=1): δ for F, ζ for G
T1 sequence (Q05655 whole entry, canonical isoform): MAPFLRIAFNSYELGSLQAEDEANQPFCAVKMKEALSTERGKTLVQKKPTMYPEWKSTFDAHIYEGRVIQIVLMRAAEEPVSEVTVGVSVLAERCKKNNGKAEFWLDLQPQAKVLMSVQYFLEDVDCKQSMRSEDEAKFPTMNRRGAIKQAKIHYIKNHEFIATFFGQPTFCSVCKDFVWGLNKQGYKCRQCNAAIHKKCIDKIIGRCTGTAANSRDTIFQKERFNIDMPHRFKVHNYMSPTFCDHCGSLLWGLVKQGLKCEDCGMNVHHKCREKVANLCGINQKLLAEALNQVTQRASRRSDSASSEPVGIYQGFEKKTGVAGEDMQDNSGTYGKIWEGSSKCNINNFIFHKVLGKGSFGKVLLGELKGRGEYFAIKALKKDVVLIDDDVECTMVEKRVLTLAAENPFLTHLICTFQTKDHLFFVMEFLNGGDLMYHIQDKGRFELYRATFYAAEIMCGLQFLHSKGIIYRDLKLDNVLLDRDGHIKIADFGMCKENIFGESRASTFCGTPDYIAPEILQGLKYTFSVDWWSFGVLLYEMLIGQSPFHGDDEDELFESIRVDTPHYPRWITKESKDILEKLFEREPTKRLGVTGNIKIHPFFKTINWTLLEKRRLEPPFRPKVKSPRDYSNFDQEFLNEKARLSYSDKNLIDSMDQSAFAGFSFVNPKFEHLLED
Description: (§1) Protein Kinase C Assays. The peptides […] (for PKC α, β and γ) and […] (for PKC δ, ε, θ, η, τ, and ζ) were used as substrates. […] Total reaction volume in each well was 50 μL. […] Following an additional 5 min incubation at ambient temperature, 75 μL from each reaction well was transferred into each well of a Unifilter (P81 cellulose phosphate paper) assay plate and washed four times with 0.1% phosphoric acid in water. […] Lead compounds from the library were combined into a single 96 well plate and re-assayed as described above in order to identify the best inhibitor. IC50 determinations of resynthesized inhibitor leads for individual PKC isoforms. Assays were performed in triplicate at pH 7.5 and thermostatically maintained at 30° C. using a Boekel constant temperature device. […] The IC50 values for pure compounds as inhibitors were calculated based on the experimental data using GraFit (Erithacus Software Limited). Protein kinase C δ, ε, θ, and η: As described for PKC α, β, and γ except that the assay was performed in the absence of CaCl2. Protein kinase C τ and ζ: As described for PKC α, β, and γ except that the assay was performed in the absence of CaCl2 and DAG. […] Total reaction volume in each well was 50 μL. All the wells were tested in the same plate and each concentration was tested in triplicate. […] Double reciprocal plots were obtained at different concentrations of substrates. Ki values were calculated using Enzyme Kinetics, SigmaPlot (SPSS Inc.).

PKCα [2] = biological target: T2, PKCα (Homo sapiens, UniProt P17252); experiment: IC50 determination for individual PKC isoforms (Example 2); assay type: biochemical; details: for Fold selectivity (IC50), PKC α: relative to most potently inhibited isoform (=1): δ for F, ζ for G
Description: (§2) Protein Kinase C Assays. The peptides […] (for PKC α, β and γ) and […] (for PKC δ, ε, θ, η, τ, and ζ) were used as substrates. IC50 determinations of resynthesized inhibitor leads for individual PKC isoforms. Assays were performed in triplicate at pH 7.5 and thermostatically maintained at 30° C. using a Boekel constant temperature device. […] The IC50 values for pure compounds as inhibitors were calculated based on the experimental data using GraFit (Erithacus Software Limited). Protein kinase C δ, ε, θ, and η: As described for PKC α, β, and γ except that the assay was performed in the absence of CaCl2. Protein kinase C τ and ζ: As described for PKC α, β, and γ except that the assay was performed in the absence of CaCl2 and DAG.

PKC ι = biological target: T3, PKC ι (Homo sapiens, UniProt P41743); experiment: as above; assay type: biochemical; details: for Fold selectivity (IC50), PKC ι: relative to most potently inhibited isoform (=1): δ for F, ζ for G, text prints τ
T3 construct: purchased Panvera
T3 sequence (P41743 1-596): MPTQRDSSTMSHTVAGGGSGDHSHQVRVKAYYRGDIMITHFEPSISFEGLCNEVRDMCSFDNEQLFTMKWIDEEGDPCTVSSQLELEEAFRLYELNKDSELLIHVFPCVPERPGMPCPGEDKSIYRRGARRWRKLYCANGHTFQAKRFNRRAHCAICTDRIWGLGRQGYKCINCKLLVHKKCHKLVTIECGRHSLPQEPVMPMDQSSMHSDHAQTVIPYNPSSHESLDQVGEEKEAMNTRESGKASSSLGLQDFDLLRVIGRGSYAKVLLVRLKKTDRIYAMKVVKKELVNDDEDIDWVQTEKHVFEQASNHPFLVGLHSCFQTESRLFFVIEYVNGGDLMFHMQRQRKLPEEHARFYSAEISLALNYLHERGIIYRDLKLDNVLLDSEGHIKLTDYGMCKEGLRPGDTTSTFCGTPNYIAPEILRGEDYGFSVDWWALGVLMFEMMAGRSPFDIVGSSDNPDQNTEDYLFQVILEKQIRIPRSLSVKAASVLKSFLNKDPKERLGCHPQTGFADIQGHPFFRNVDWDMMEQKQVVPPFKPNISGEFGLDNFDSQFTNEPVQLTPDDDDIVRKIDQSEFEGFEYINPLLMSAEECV
Description: as §2

PKC βI = biological target: T4, PKC βI (Homo sapiens, UniProt P05771); experiment: as above; assay type: biochemical; details: for Fold selectivity (IC50), PKC β1: relative to most potently inhibited isoform (=1): δ for F, ζ for G
T4 construct: purchased Panvera
T4 sequence (P05771 whole entry, canonical isoform): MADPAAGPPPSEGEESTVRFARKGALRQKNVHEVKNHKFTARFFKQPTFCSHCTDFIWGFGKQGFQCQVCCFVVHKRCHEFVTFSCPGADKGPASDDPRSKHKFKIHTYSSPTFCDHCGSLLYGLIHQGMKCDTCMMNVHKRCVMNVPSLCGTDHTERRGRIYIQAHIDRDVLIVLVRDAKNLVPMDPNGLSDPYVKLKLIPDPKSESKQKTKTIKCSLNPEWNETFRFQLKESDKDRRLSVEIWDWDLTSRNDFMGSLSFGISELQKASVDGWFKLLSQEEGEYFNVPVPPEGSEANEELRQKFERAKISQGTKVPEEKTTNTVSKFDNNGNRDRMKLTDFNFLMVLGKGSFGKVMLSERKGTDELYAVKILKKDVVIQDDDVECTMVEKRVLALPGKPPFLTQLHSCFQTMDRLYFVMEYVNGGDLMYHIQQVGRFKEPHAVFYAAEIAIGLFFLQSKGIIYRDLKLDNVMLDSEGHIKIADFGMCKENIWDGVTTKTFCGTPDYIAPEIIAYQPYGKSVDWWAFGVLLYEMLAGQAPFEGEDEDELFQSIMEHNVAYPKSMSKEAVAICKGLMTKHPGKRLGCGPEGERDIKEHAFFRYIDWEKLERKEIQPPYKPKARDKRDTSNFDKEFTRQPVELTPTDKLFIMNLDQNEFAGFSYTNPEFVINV
Description: as §2

PKCζ [3] = biological target: T5, PKCζ (Homo sapiens, UniProt Q05513); experiment: PKC ζ screen, IC50 and Ki determination (Example 2); assay type: biochemical; set-up: purchased Panvera; details: for Fold selectivity (IC50), PKC ζ: relative to most potently inhibited isoform (=1): δ for F, ζ for G
T5 sequence (Q05513 1-592): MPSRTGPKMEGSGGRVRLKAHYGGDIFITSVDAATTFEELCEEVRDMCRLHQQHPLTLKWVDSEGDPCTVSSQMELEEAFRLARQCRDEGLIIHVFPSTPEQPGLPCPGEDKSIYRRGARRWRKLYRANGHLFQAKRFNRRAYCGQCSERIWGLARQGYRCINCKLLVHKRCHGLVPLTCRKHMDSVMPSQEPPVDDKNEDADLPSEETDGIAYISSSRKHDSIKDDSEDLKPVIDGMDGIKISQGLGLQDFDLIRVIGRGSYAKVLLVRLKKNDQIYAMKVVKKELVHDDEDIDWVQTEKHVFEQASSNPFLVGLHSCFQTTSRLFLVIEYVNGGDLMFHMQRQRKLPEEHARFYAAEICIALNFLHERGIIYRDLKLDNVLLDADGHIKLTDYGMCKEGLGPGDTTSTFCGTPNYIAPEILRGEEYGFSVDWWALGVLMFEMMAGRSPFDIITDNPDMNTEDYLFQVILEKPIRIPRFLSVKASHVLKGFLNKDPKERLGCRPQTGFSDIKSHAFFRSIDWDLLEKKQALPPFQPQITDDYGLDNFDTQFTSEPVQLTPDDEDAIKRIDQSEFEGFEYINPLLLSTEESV
Description: as §1

PKCε [4] = biological target: T6, PKCε (Homo sapiens, UniProt Q02156); experiment: IC50 determination for individual PKC isoforms (Example 2); assay type: biochemical; set-up: purchased Panvera; details: for Fold selectivity (IC50), PKC ε: relative to most potently inhibited isoform (=1): δ for F, ζ for G
T6 sequence (Q02156 1-737): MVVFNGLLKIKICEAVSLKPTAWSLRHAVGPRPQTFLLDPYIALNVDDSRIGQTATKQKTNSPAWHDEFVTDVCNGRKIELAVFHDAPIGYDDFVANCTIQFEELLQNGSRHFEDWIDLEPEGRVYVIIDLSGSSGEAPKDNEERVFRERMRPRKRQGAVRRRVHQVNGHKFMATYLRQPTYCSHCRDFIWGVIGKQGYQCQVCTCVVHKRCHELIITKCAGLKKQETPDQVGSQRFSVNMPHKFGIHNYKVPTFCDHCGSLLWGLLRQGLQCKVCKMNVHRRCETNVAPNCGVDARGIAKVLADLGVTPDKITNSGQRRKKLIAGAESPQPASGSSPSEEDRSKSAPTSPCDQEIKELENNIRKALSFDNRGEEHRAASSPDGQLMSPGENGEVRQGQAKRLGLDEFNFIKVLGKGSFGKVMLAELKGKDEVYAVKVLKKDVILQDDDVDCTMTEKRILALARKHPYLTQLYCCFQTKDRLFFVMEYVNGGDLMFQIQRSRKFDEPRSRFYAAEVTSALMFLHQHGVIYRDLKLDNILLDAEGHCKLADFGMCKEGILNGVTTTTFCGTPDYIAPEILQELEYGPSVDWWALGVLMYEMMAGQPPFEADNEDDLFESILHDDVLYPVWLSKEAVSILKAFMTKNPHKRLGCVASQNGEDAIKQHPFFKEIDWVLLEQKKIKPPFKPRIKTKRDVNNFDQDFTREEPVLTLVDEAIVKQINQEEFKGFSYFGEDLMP
Description: as §2

PKCη = PKCη (Homo sapiens, UniProt P24723); experiment: as above; assay type: biochemical; set-up: purchased Panvera; details: for Fold selectivity (IC50), PKC η: relative to most potently inhibited isoform (=1): δ for F, ζ for G
PKCη, sequence (P24723 whole entry, canonical isoform): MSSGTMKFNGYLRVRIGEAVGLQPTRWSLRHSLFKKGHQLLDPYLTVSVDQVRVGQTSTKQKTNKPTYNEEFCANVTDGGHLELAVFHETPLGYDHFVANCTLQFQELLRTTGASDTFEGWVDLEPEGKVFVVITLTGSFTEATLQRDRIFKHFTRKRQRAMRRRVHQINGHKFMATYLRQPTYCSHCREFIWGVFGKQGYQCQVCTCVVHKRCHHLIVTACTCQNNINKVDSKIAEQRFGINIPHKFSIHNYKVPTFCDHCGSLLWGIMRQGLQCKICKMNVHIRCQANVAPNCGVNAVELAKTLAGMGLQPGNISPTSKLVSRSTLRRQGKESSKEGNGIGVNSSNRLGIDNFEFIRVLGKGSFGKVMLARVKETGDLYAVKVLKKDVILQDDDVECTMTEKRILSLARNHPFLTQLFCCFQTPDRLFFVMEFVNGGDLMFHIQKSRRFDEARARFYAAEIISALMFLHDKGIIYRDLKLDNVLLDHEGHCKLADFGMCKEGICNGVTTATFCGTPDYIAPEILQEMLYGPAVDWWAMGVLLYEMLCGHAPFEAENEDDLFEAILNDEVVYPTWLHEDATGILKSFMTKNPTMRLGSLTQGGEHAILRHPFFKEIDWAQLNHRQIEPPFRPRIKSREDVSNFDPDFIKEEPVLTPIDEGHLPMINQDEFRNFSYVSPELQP
Description: as §2

PKCγ = PKCγ (Homo sapiens, UniProt P05129); experiment: as above; assay type: biochemical; set-up: purchased Panvera; details: for Fold selectivity (IC50), PKC γ: relative to most potently inhibited isoform (=1): δ for F, ζ for G
Description: as §2

PKCθ = PKCθ (Homo sapiens, UniProt Q04759); experiment: as above; assay type: biochemical; set-up: purchased Panvera; details: for Fold selectivity (IC50), PKC θ: relative to most potently inhibited isoform (=1): δ for F, ζ for G
PKCθ, sequence (Q04759 whole entry, canonical isoform): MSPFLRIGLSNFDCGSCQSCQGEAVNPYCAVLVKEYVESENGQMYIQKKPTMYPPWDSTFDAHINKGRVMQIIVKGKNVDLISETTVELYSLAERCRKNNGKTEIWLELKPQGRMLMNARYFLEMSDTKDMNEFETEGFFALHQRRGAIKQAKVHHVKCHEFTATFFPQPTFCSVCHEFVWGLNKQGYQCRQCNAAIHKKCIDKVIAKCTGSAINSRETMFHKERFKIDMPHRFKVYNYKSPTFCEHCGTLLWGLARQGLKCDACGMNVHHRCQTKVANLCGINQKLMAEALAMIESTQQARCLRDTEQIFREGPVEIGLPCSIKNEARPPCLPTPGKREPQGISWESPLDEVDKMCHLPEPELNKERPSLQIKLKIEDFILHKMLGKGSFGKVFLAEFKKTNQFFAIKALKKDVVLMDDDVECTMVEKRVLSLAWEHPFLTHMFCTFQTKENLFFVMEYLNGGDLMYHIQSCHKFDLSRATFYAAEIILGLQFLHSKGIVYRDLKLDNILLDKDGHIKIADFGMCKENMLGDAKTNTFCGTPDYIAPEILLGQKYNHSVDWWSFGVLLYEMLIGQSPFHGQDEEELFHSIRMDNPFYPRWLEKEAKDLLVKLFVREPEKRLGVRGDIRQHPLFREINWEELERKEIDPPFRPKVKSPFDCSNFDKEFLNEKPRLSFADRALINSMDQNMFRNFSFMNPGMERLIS
Description: as §2

PKC β1 = PKC β1 (Homo sapiens, UniProt P05771); details: literature values; relative to most potently inhibited isoform (=1); cited from earlier work
PKC β1, sequence (P05771 whole entry, canonical isoform): as the sequence (P05771 whole entry, canonical isoform) above

PKCδ [5] = biological target: T1, PKCδ; set-up: purchased Panvera; details: literature values; relative to most potently inhibited isoform (=1); cited from earlier work
PKCα [6] = biological target: T2, PKCα; details: cited from earlier work
PKCε [7] = biological target: T6, PKCε; set-up: purchased Panvera; details: literature values; relative to most potently inhibited isoform (=1); cited from earlier work
PKCζ [8] = biological target: T5, PKCζ; set-up: purchased Panvera; details: literature values; relative to most potently inhibited isoform (=1); cited from earlier work

Structure (SMILES) | IC50 (PKCδ [1]) [nM] | Fold selectivity (IC50), PKC α (PKCα [2]) [fold] | Fold selectivity (IC50), PKC ι (PKC ι) [fold] | Fold selectivity (IC50), PKC β1 (PKC βI) [fold] | Fold selectivity (IC50), PKC ζ (PKCζ [3]) [fold] | Fold selectivity (IC50), PKC ε (PKCε [4]) [fold] | Fold selectivity (IC50), PKC η (PKCη) [fold] | Fold selectivity (IC50), PKC γ (PKCγ) [fold] | Fold selectivity (IC50), PKC θ (PKCθ) [fold] | Fold selectivity (IC50), PKC δ (PKCδ [1]) [fold] | further results
CSCC[C@H](NC(=O)[C@H](Cc1ccccc1)NC(=O)[C@H](CNC(C)=O)NC(=O)CNC(=O)[C@H](CCC(N)=O)NC(=O)[C@H](CCCNC(=N)N)NC(=O)[C@H](CCCNC(=N)N)NC(C)=O)C(=O)N[C@@H](Cc1ccc(O)cc1)C(=O)N[C@@H](Cc1ccccc1)C(=O)NCCS [Compound A] (Ac-RRQG[Dap](Ac)FMYF-Cysteamide) | 50000 |  |  |  |  |  |  |  |  |  | 
CSCC[C@H](NC(=O)[C@H](Cc1ccccc1)NC(=O)[C@H](CNC(=O)CNC(=O)c1ccc([N+](=O)[O-])cc1)NC(=O)CNC(=O)[C@H](CCC(N)=O)NC(=O)[C@H](CCCNC(=N)N)NC(=O)[C@@H](N)CCCNC(=N)N)C(=O)N[C@@H](Cc1ccc(O)cc1)C(=O)N[C@@H](Cc1ccccc1)C(=O)NCCS [Compound E] (H-RRQG[Dap]([Gly-Benzoyl(4-NO2)])FMYF-Cysteamide) | 25 ± 2 |  |  |  |  |  |  |  |  |  | IC50 (PKCα [2]): 3100 ± 200 nM; Selectivity (Compound E), PKC α (PKCα [2]; IC50 relative to βI (=1)): 387; Selectivity (Compound E), PKC ι (PKC ι; IC50 relative to βI (=1)): 94; IC50 (PKC βI): 8 ± 0.5 nM; Selectivity (Compound E), PKC βI (PKC βI; IC50 relative to βI (=1)): 1; IC50 (PKCζ [3]): 22 ± 3 nM; Selectivity (Compound E), PKC ζ (PKCζ [3]; IC50 relative to βI (=1)): 2.8; Selectivity (Compound E), PKC ε (PKCε [4]; IC50 relative to βI (=1)): 287; Selectivity (Compound E), PKC η (PKCη; IC50 relative to βI (=1)): 1650; Selectivity (Compound E), PKC γ (PKCγ; IC50 relative to βI (=1)): 550; Selectivity (Compound E), PKC θ (PKCθ; IC50 relative to βI (=1)): 1775; Selectivity (Compound E), PKC δ (PKCδ [1]; IC50 relative to βI (=1)): 3.1
CSCC[C@H](NC(=O)[C@H](Cc1ccccc1)NC(=O)[C@H](CNC(=O)CNC(=O)c1ccc([N+](=O)[O-])cc1)NC(=O)CNC(=O)[C@H](CCC(N)=O)NC(=O)[C@H](CCCNC(=N)N)NC(=O)[C@H](CCCNC(=N)N)NCc1cccc(O)c1O)C(=O)N[C@@H](Cc1ccc(O)cc1)C(=O)N[C@@H](Cc1ccccc1)C(=O)NCCS [Compound F] (H-[X1]RQG[Dap]([Gly-Benzoyl(4-NO2)])FMYF-Cysteamide) | 18 ± 2 | 944 | 26 | 172 | 200 | 489 | 683 | 500 | 761 | 1 | Ki (PKCδ [1]; versus peptide substrate): 8 ± 1 nM
CSCC[C@H](NC(=O)[C@H](Cc1ccccc1)NC(=O)[C@H](CNC(=O)CNC(=O)c1ccc([N+](=O)[O-])cc1)NC(=O)CNC(=O)[C@H](CCC(N)=O)NC(=O)[C@H](CCCNC(=N)N)NC(=O)[C@H](CCCNC(=N)N)N(Cc1cccc(O)c1O)Cc1cccc(O)c1O)C(=O)N[C@@H](Cc1ccc(O)cc1)C(=O)N[C@@H](Cc1ccccc1)C(=O)NCCS [Compound G] (X2-RQG[Dap]([Gly-Benzoyl(4-NO2)])FMYF-Cysteamide) | 5200 ± 100 | 6333 | 1493 | 730 | 1 | 4600 | 2040 | 5093 | 2227 | 693 | 
CN(C)CCCn1cc(C2=C(c3c[nH]c4ccccc34)C(=O)NC2=O)c2ccccc21 [Gö6850] |  |  |  |  |  |  |  |  |  |  | Fold selectivity (IC50), PKC β1 (PKC β1): 2 fold; Fold selectivity (IC50), PKC δ (PKCδ [5]): 25 fold; IC50 (PKCα [6]; literature value, read-out: IC50 of the most potently inhibited isoform, PKC α (in parentheses)): 8.4 nM; Fold selectivity (IC50), PKC α (PKCα [6]; literature values, relative to most potently inhibited isoform (=1)): 1 fold; Fold selectivity (IC50), PKC ε (PKCε [7]): 16 fold; Fold selectivity (IC50), PKC ζ (PKCζ [8]): 690 fold
